Legend:
[1] = Plasma pharmacokinetics following a single oral dose in CD-1 mice; format: in vivo; conditions: single oral dose 25 mg/kg in PEG 200, CD-1 male mice; given at 1 μmol/kg; 25 mg/kg
Description: (§1) A single oral dose of test compound at 25 mg/kg in PEG 200 (dose volume 5 mL/kg) was administered to nine CD-1 male mice. Five untreated animals were used for the collection of control plasma and liver. Terminal plasma and liver samples were collected from three animals per time point at 4, 12 and 24 hours post dose. Liver specimens were collected from all animals immediately after the incision. Freezing forceps stored in liquid nitrogen were used to freeze the liver before excision.
Plasma samples were analyzed for 2′-methylguanosine (2′-MeG) by LC-MS/MS. The internal standard (IS) was 2′-MeG-D3. For protein precipitation and extraction, each plasma sample (50 μL) was treated with 500 μL of 0.2% formic acid in acetonitrile and 20 μL of the internal standard working solution. After vortexing and centrifugation, 500 μL of the sample extracts were transferred to a new plate, dried under N2 at ˜28° C. and reconstituted with 75 μL of 0.2% FA in water. The extracts were chromatographed on an Aquasil C18 column using a gradient system of 0.2% formic acid in water and acetonitrile. The analytes were detected and quantified by tandem mass spectrometry in positive ion mode on an MDS Sciex API5000 equipped with a Turbo Ionspray® interface. The calibration range was 0.500 (LLOQ) to 200 ng/mL in mouse plasma.

Stability in mouse blood = format: in vitro ADME; conditions: on ice, percent unchanged test compound
Description: (§2) Stability of compounds were determined in fresh human whole blood with K2EDTA as the anticoagulant (stored refrigerated at 2-8° C. and used within 7 days of receipt). The experiment was conducted with three replicates for each time point. Whole blood, pre-incubated at 37° C. for 10-15 minutes, was fortified with a solution of test compound for a final concentration of 0.5 μM and mixed for 30 sec. At intervals (0, 0.5, 1 and 2 hr), three 50 μL aliquots were combined with 200 μL (each) of an ice-cold solution of the internal standard (carbutamide 500 ng/mL in acetonitrile). The samples were vortexed for 30 sec and then centrifuged at 16,100 g for 5 min. The supernatant was analyzed by LC-MS/MS. The MS peak area ratio of the test compounds versus the internal standard was calculated and percent unchanged test compound was calculated for each time point using this ratio.
The stability in mouse blood was determined on ice at 0, 0.5 and 1 hr as herein.

[2] = Stability in simulated intestinal fluid; format: in vitro ADME; conditions: 100 μM, 2 hours at 37° C., percent of the peak area at time zero
Description: (§3) Simulated gastric and intestinal fluids containing pepsin and pancreatin respectively were prepared according to the U.S. Pharmacopoeia USP291 procedure (www.pharmacopeia.cn/v29240/usp29nf24s0_ris1s126.html). Compounds (final concentration 100 μM) were incubated in duplicate in the appropriate fluid for 2 hours at 37° C. The samples were quenched with 200 μl cold acetonitrile, vortexed for 30 seconds and then centrifuged at 16,100 g for 10 min. The supernatants were analyzed by HPLC on a C-18 column with UV detection at 252 nm. The time 0 samples were prepared by adding SGF or SIF fluid to the quenching solvent followed by the test compound. Stability of the compounds was determined by peak area of the test compounds after incubation and calculated as percent of the peak area observed at time zero.

in vitro = conditions: human, HCV Replicon CC50, Zluc cells, CellTiter-Blue
[3] = Stability in simulated gastric fluid; format: in vitro ADME; conditions: 100 μM, 2 hours at 37° C., percent of the peak area at time zero
Description: as §3

fresh human hepatocytes = assay: Release of active metabolite in fresh human hepatocytes; format: in vitro ADME; conditions: 10 μM compound; for FHH TP Cmax: fresh human hepatocytes; for FHH TP AUC: fresh human hepatocytes, 6, 24 and 48 hours
How it was run: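 Overnight-acclimatized hepatocytes (0.8 million cells/well human, 0.5 million mouse) incubated at 37 °C with 10 μM test compound (0.1% DMSO). Sampled at 6, 24, 48 h (human) or 1, 4, 8, 12, 24 h (mouse); cells washed, extracted in cold 70% methanol, intracellular content quantified by LC-MS/MS with internal standard.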

HCV genotype 1b replicon = assay: HCV Replicon Assay; format: cell-based; conditions: Hepatitis C virus, 72 h, Zluc cells (Huh-7-derived, HCV genotype 1b replicon, luciferase reporter), 72 hours; read-out: HCV Replicon EC50
How it was run: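 Zluc Huh-7 cells with HCV genotype 1b replicon and luciferase reporter treated with 5-fold dilutions (100 μM to 0.0000512 μM final) in duplicate, or at 1 and 10 μM. Luminescence read with ONE-glo; EC50 from dose-response fits, or % inhibition at the fixed concentrations.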

[4] = Stability in fresh human whole blood; format: in vitro ADME; conditions: 0.5 μM, percent unchanged test compound
Description: as §2

[5] = Liver pharmacokinetics following a single oral dose in CD-1 mice; format: in vivo; conditions: single oral dose 25 mg/kg in PEG 200, CD-1 male mice; given at 1 μmol/kg; 25 mg/kg
Description: as §1
Liver samples were analyzed for the active species 2′-methylguanosine triphosphate (2′-MeGTP) by LC-MS/MS. 2′-MeGTP levels were assayed by homogenizing (on ice) a known weight of mouse liver with 4× volume of 0.95 M trichloroacetic acid (TCA). Internal standard solution was added to the homogenate followed by neutralization with 20% ammonium hydroxide solution and addition of 500 μL 1% formic acid. The tissue samples were extracted by weak anion exchange solid phase extraction (SPE). Post extraction, the eluates were evaporated under nitrogen, followed by reconstitution before injection onto the LC-MS/MS system. The samples were chromatographed on a Luna NH2 column using a gradient system of ammonium acetate (1 mM to 20 mM and pH 8.0 to pH 10.0) in water and acetonitrile (70:30). The analyte was detected and quantified by tandem mass spectrometry in positive ion mode on an API4000 equipped with a Turbo Ionspray® interface. The calibration range was 10 to 10000 pmol/mL in mouse liver homogenate (50 to 50000 pmol/g of mouse liver).

mouse hepatocytes = assay: Release of active metabolite in mouse hepatocytes; format: in vitro ADME; conditions: 10 μM compound
Description: Plates of fresh human and mouse hepatocytes were obtained on ice. The medium was removed and replaced with hepatocyte culture medium (William's E supplemented with penicillin-streptomycin, 1% L-glutamine, 1% insulin-transferrin-selenium and 0.1 μM Dexamethasone (Invitrogen) or with Invitro GRO HI medium complemented with Torpedo antibiotics (Celsis)). Cells were left overnight in an incubator at 37° C. to acclimatize to culture and the medium.
Hepatocyte incubations were conducted at a final volume of 0.5 mL hepatocyte culture medium/well (0.8 million cells/well for human and 0.5 million cells/well for mouse; 12 well plate no overlay, collagen coat). Culture medium from overnight incubation of cells was removed and replaced with fresh medium, pre-warmed to 37° C., containing 10 μM of test compound from a stock solution in DMSO (final DMSO concentration was 0.1%). At each specific time point, incubation medium was removed and cell monolayers were carefully washed two times with ice-cold PBS. Following the last wash, all PBS was carefully removed and 1.0 mL of extraction solution (ice-cold 70% methanol/30% water) added. Cells were scraped off and suspended in the extraction solution, transferred to 2 mL polypropylene microfuge tubes and intracellular contents extracted overnight at −20° C.
After the overnight treatment the cellular extracts were prepared by centrifugation at 16,000×g for 10 min to remove cellular debris. The remaining sample was then dried using a refrigerated centrivap concentrator. Dry extracts were reconstituted in 1000 μL of HPLC-grade water and centrifuged at 16,000×g for 10 min. Aliquots (100 μL each) of the supernatant were transferred into a 96 well plate and internal standard (4 ng/mL final concentration) was added as the internal standard (IS) for LC-MS/MS analysis.
The incubation time points were 6, 24 and 48 hours for human hepatocytes and 1, 4, 8, 12 and 24 hours for mouse hepatocytes.

Huh-7 cells = assay: Release of active metabolite in Huh-7 cells; format: in vitro ADME, human; conditions: 10 μM compound
Description: Huh-7 cells were plated in 1 mL culture medium (DMEM, containing glucose, L-glutamine and sodium pyruvate, 10% FBS, 100 IU/mL penicillin, 100 μg/mL streptomycin, 2 mM GlutaMAX, 1% MEM non-essential amino acids) at the concentration 0.8, 0.4 and 0.2 million cells per well on 6 well plates for 24, 48 and 72 hr treatment, respectively. Plated cells were incubated overnight at 37° C. in an incubator.
The following morning compounds was diluted to 20 μM from a stock solution in DMSO in fresh culture medium pre-warmed to 37° C. and 1 mL of the solution/well was added to cells. A final medium volume per well was 2.0 mL, Compound concentration in well was 10 μM and final DMSO concentration was 0.1%.
After 24, 48 or 72 hr, the medium was carefully removed and cell monolayers were washed twice with 2 mL ice-cold PBS per well. Following the last wash, all PBS was carefully removed and 1.0 mL of extraction solution (ice-cold 70% methanol) added. The plate was tightly covered with Parafilm, plastic plate cover and Parafilm again and an intracellular content was extracted at −20° C. for 24 hr.
After 24 hr extracts were transferred into polypropylene microfuge tubes and dried on a refrigerated centrivap concentrator. Dry residues were reconstituted in 250 μL of HPLC-grade water and centrifuged at 16,000×g for 10 min. Aliquots (100 μL each) of the supernatants were transferred into a 96 well plate and internal standard (4 ng/mL final concentration) was added as the internal standard (IS) for LC-MS/MS analysis.

| Structure (SMILES) | Ms Plasma 2′-MeG AUC [1] [pmol · hr/mL at 1 μmol/kg] | Ms Plasma 2′-MeG Cmax [1] [pmol/mL at 1 μmol/kg] | Stability WB_Mouse (ice; 1 hr) (Stability in mouse blood) [%] | Stability SIF [2] [%] | CC50 (in vitro) [µM] | Stability SGF [3] [%] | FHH TP Cmax (fresh human hepatocytes) [pmol/mill cells] | FHH TP AUC (fresh human hepatocytes) [pmol · hr/mill cells] | EC50 (HCV genotype 1b replicon) [µM] | Stability WB_Human (37° C.; 2 hr) [4] [%] | Ms Liver 2′-MeGTP AUC [5] [pmol · hr/g at 1 μmol/kg] | MsH Cmax (mouse hepatocytes; mouse hepatocytes) [pmol/mill cells] | MsH AUC (mouse hepatocytes; mouse hepatocytes, 1, 4, 8, 12 and 24 hours) [pmol · hr/mill cells] | Huh-7 TP (24 hr) (Huh-7 cells; 24 hr) | Huh-7 TP (48 hr) (Huh-7 cells; 48 hr) | Huh-7 TP (72 hr) (Huh-7 cells; 72 hr) | Huh-7 TP AUC (Huh-7 cells; Huh-7 cells) [pmol/mill cells] |
| --- | --- | --- | --- | --- | --- | --- | --- | --- | --- | --- | --- | --- | --- | --- | --- | --- | --- |
| CCOc1nc(N)nc2c1ncn2[C@@H]1O[C@@H]2COP(=O)(OCCSC(=O)C(C)(C)CO)O[C@H]2[C@@]1(C)F (single isomer, unassigned) [Compound 5 Diastereomer 1] | 97 | 8.1 | 99 | 86 | > 50 | 108 | 204 | 7185 | < 0.25 | 82 | 1200 | 374 | 9866 | – | – | – | – |
| CCOC(=O)CCCOP1(=O)OC[C@H]2O[C@@H](n3cnc4c(OC)nc(N)nc43)[C@](C)(O)[C@@H]2O1 (single isomer, unassigned; diastereomer 1) [Compound 25 Diastereomer 1] | – | – | – | – | – | – | 1137 | 2245 | – | – | – | – | – | 25 | 28 | 36 | 1697 |
| CCOc1nc(N)nc2c1ncn2[C@@H]1O[C@@H]2COP(=O)(OCCSSC(C)(C)C)O[C@H]2[C@@]1(C)F (single isomer, unassigned) [Compound 24 Diastereomer 1] | – | – | – | 90 | < 50 | 87 | 154 | 3399 | < 0.25 | 91 | – | – | – | – | – | – | – |
